Source: patent US20250074911A1, “MACROCYCLIC BTK INHIBITORS” (Crossfire Oncology Holding B.V., priority 2021, published 2025)

Assays:
[1] = molecular target: BTK C481S (Homo sapiens (Human), UniProt Q06187, C481S); assay: Binding kinetics measurements (Surface Plasmon Resonance) on BTK C481S; settings: for Tau (h) BTK C418S (Act): target residence time for BTK C481S, SPR
Summary of the method: (§1)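 Protein was immobilized on a streptavidin surface at 4° C, then equilibrated in running buffer containing 1% DMSO at 30 μl/min for at least 30 min. Compounds were injected five times at increasing concentrations (3.16-316 nM) at 22° C. Induced-fit binders were fitted with a two-state reaction model.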

[2] = tested on: wt-BTK, BTK C481S, BTK T474I and BTK C481S/T474I expressing 293 cells; assay: Cell based washout, pBTK (Tyr223) Western blot; design: species or system human; settings: 1000 nM compound 2 hours, washed twice, harvested 0-24 hours
Experimental: In vitro cellular (mutant) BTK inhibition, and inhibitor wash-out Generation of human wt-BTK, BTK C481S, BTK T474I, and BTK C481S/T474I expressing GripTite 293 MSR cells.
GripTite 293 MSR cells (Thermo Fisher, cat. no. R79507), here after referred to as 293 cells, were cultured in DMEM/F-12, GIutaMAX™ supplement medium (Thermo Fisher cat. no. 10565018) supplemented with 1% Penicilline/Streptomycine (Thermo Fisher cat. no. 15140122) 10% fetal bovine serum (Biowest, cat. no. Si181 0-500), 1× MEM Non-Essential Amino Acids (Thermo Fisher cat. no. 11140050) and 50 μg/ml Geneticin (Thermo Fisher cat. no. 10131035). Cells were transfected, with pEF6/V5-HisB (Thermo Fisher cat. no. V96120) expression vectors containing either full-length wildtype-BTK (canonical sequence NM_000061), BTK C481 S, BTK T474I or BTK C481 S/T474I (BaseClear) using Lipofectamine™ 3000 (Invitrogen). Because the stop codon at the end of the coding sequence of BTK has been conserved, the His-tag present in the expression vector is not being used. Immediately after transfection, cells were cultured in medium without Geneticin, and after 24 hours 50 μg/ml geneticin was added. 48 hours after transfection, medium was removed and replaced by medium containing both geneticin (50 μg/ml) and blasticidin (10 μg/ml) S HCl (Thermo Fisher, cat. no. A1113903). The resulting transfectants were cultured under blasticidin selection pressure for 18-35 passages to obtain stable wild-type BTK (wt-BTK), BTK C481S, BTK T474I, and BTK C481 S/T474I expressing cell pools. Stability of the (mutant) BTK expression in the 293 cell pools was confirmed by poly-acrylamide gel electrophoresis followed by Western blotting (FIG. 1A). […] For both experiments 10 μg of protein was separated on 4-12% Bis-Tris polyacrylamide gels.
Wild-type BTK, BTK C481S, BTK T474I or BTK C481 S/T474I expressing 293 cells were lysed in lysis buffer supplemented with protease inhibitors (Merck, cat. no. P8340) and phosphatase inhibitors (Thermo Fisher, cat. no. 78426). The protein concentration was determined with a Pierce BCA protein assay kit (Thermo Fisher, cat. no. 23227). Lysates were diluted to a concentration of 1 μg/μl in NuPage® LDS Sample Buffer (Thermo Fisher, cat. no. NP0008) with 167 mM DTT (Acros Organics, cat. no. 10686841) and denatured for 5 minutes at 95° C. The samples (10 μg protein) were, together with a pre stained protein ladder (Thermo Fisher, cat. no. 26616), separated on 4-12% Bis-Tris polyacrylamide gels (Thermo Fisher, cat. no. NP0324BOX). Separated protein was subsequently transferred, in methanol free transfer buffer (Thermo Fisher, cat. no. 35045), to a nitrocellulose membrane (Thermo Fisher, cat. no. 88018). Blots were first immunologically stained with phospho-BTK (Tyr223) rabbit mAb (Cell Signaling, cat. no. 5082S), and beta-actin rabbit mAb (Cell Signaling, cat. no. 4967S), followed by peroxidase conjugated goat anti-rabbit IgG (Cell Signaling, cat. no. 7074S). Afterwards, antibodies were removed using Western-blot stripping buffer (Thermo Fisher cat. no. 46428) and staining was repeated with a (total-)BTK mouse mAb (Abnova, cat. no. MAB0798), followed by peroxidase conjugated horse anti-mouse IgG (Cell Signaling, cat. no. 7076S). For all blots the colour development was performed with ECL horseradish peroxidase substrate (BioRad, cat. no. 170-5060).
Wild-type BTK, BTK C481S, BTK T474I, and BTK C481 S/T474I expressing 293 cells were growing exponentially when seeded in culture medium, without blasticidin, at a density of 2,000,000 cells/4 ml/well, in 25 cm^2 cell culture flasks (Greiner Bio-one, cat. no. 690175). Flasks were placed in a 37° C. C02-incubator for 16-24 hours after which 1 ml culture medium containing 5000 nM of the compound of Example 46 or Example 201, or Example 184, or Example 204, or Example 45 or (+/−) Loxo-305, or 0.05% DMSO (no compound) was added. 2 hours after addition of the inhibitors (0h) cells are either collected or washed twice with 5 ml culture medium. […]

[3] = molecular target: BTK T316A (Homo sapiens (Human), UniProt Q06187, T316A); assay: Binding kinetics measurements (Surface Plasmon Resonance) on BTK T316A; settings: for Tau (h) BTK T316A (Act): target residence time, SPR
Summary of the method: as §1

[4] = molecular target: BTK T474I (Homo sapiens (Human), UniProt Q06187, T474I); assay: Binding kinetics measurements (Surface Plasmon Resonance) on BTK T474I; settings: for Tau (h) BTK T474I (Act): target residence time, SPR
Summary of the method: as §1

[5] = molecular target: wt-BTK (Homo sapiens (Human), UniProt Q06187); assay: Binding kinetics measurements (Surface Plasmon Resonance) on wt-BTK; settings: for Tau (h) wt-BTK (Act): target residence time, SPR
Summary of the method: as §1

[6] = molecular target: BTK T474S (Homo sapiens (Human), UniProt Q06187, T474S); assay: Binding kinetics measurements (Surface Plasmon Resonance) on BTK T474S; settings: for residence time: read-out: Tau (h) BTK T474S (Act), target residence time
Summary of the method: as §1

[7] = binding affinity by Surface Plasmon Resonance (SPR)

Sequence of wt-BTK (Q06187 whole entry): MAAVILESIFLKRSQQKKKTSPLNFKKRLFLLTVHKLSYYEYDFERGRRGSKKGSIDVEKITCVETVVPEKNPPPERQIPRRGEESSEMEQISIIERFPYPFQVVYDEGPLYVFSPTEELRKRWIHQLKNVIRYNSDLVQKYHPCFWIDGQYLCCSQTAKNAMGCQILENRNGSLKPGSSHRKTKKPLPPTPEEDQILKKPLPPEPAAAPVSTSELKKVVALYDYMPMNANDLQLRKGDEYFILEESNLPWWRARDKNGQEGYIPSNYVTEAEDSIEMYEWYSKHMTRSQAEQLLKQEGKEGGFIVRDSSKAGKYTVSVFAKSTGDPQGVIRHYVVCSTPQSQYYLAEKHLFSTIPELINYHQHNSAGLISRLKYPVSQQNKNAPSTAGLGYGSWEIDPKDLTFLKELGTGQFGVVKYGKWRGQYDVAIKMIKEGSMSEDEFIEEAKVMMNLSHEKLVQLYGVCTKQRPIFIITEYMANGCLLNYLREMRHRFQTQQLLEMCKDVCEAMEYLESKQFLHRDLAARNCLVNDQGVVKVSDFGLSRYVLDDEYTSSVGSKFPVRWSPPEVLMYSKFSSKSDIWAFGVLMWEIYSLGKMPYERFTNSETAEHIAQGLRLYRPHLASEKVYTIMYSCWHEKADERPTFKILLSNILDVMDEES
Sequence of BTK T474S (Q06187 whole entry T474S): as the sequence (Q06187 whole entry) above, with T474S counted along it
Sequence of BTK T474I (Q06187 whole entry T474I): as the sequence (Q06187 whole entry) above, with T474I counted along it
Sequence of BTK T316A (Q06187 whole entry T316A): as the sequence (Q06187 whole entry) above, with T316A counted along it
Sequence of BTK C481S (Q06187 whole entry C481S): as the sequence (Q06187 whole entry) above, with C481S counted along it

| Structure (SMILES) | target residence time on BTK C481 mutants ([1]; result in words) | Tau (h) BTK C418S (Act) [1] [h] | level of phosphorylated BTK (pBTK (Tyr223)) in wash-out experiments ([2]; result in words) | target residence time on BTK T316 mutants ([3]; result in words) | Tau (h) BTK T316A (Act) [3] [h] | target residence time on BTK T474 mutants (T474I) ([4]; result in words) | Tau (h) BTK T474I (Act) [4] [h] | target residence time on wild-type-BTK ([5]; result in words) | Tau (h) wt-BTK (Act) [5] [h] | residence time [6] [h] | target residence time on BTK T474 mutants (T474S) ([6]; result in words) | Kd [1, 7] [nM] | time for which level of phosphorylated BTK (pBTK (Tyr223)) is prohibited or reduced after wash-out ([2]; also cell lines expressing mutant BTK) | Kd [3, 7] [nM] | Kd [4, 7] [nM] | Kd [5, 7] [nM] | Kd [6, 7] [nM] |
| --- | --- | --- | --- | --- | --- | --- | --- | --- | --- | --- | --- | --- | --- | --- | --- | --- | --- |
| COc1ccc(F)cc1C(=O)NCc1ccc(-c2nn([C@@H](C)C(F)(F)F)c(N)c2C(N)=O)cc1 [pirtobrutinib, reference compound] | short target residence times | 0.91 | does not prohibit or reduce the level of phosphorylated BTK | short target residence times | 0.17 | short target residence times | 0.03 | short target residence times | 0.45 | 1.25 | short target residence times | – | – | – | – | – | – |
| Nc1ncc2c3c1c(-c1ccc(C(=O)Nc4cc(C(F)(F)F)ccn4)cc1)nn3[C@@H]1CCC[C@H](C1)NC(=O)CCCCC/C=C/2 [Example 46] | – | 9.36 | – | – | 3.23 | – | 2.58 | – | 4.87 | 4.8 | – | < 5 | at least 6 hours | < 5 | < 2 | < 5 | < 3 |
